Data: ChEMBL document CHEMBL3396982, “Design and synthesis of a novel series of [1-(4-hydroxy-benzyl)-1H-indol-5-yloxy]-acetic acid compounds as potent, selective, thyroid hormone receptor β agonists” (Bioorg Med Chem Lett, 2015)

Assays:
[1] = target: T1, Thyroid hormone receptor beta (Homo sapiens, UniProt P10828); experiment: Displacement of [125I]-L-3,5,3'-triiodothyronine from human TRbeta expressed in human Hela cell lysate measured after overnight incubation by competition binding assays; assay type: cell-free
T1 sequence (P10828 whole entry): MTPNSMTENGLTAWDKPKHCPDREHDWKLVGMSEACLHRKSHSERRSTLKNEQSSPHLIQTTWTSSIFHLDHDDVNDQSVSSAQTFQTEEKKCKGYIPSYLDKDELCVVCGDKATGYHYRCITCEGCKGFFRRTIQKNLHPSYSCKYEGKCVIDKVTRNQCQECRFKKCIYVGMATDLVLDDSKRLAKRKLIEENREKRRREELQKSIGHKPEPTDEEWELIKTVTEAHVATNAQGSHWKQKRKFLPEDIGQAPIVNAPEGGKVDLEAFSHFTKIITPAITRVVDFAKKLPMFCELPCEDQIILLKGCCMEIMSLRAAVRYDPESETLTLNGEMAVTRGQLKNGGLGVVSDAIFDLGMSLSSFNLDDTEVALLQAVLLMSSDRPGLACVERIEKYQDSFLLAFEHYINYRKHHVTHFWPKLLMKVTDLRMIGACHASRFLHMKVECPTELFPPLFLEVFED

[2] = target: T2, Thyroid hormone receptor alpha (Homo sapiens, UniProt P10827); experiment: Displacement of [125I]-L-3,5,3'-triiodothyronine from human TRalpha expressed in human Hela cell lysate measured after overnight incubation by competition binding assays; assay type: cell-free
T2 sequence (P10827 whole entry): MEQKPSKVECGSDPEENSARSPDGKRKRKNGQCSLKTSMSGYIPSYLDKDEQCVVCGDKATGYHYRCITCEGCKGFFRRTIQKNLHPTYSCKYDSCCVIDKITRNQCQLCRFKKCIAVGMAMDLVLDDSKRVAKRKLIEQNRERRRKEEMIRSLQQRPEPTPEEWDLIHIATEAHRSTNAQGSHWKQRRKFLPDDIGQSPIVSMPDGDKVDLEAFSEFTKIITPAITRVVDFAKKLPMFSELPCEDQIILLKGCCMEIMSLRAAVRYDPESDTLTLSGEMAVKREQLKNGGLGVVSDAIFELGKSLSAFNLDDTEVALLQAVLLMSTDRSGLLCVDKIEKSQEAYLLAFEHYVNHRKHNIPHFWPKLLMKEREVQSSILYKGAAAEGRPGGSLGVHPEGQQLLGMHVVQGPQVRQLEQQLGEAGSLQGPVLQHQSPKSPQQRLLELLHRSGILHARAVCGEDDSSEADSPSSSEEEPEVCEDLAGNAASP

[3] = system: Rattus norvegicus; experiment: Increase in HDL level in fructose-fed Sprague-Dawley rat model of dyslipidemia at 0.1 mg/kg, po qd through oral gavage by size exclusion chromatography relative to vehicle-treated control; assay type: functional
[4] = system: Rattus norvegicus; experiment: Toxicity in fructose-fed Sprague-Dawley rat model of dyslipidemia assessed as effect on food intake at 0.1 to 10 mg/kg, po qd through oral gavage; assay type: organism-based; design: dose 0.1-10 mg/kg, route oral; conditions: in vivo
[5] = system: Rattus norvegicus; experiment: Increase in HDL level in fructose-fed Sprague-Dawley rat model of dyslipidemia at 0.3 mg/kg, po qd through oral gavage by size exclusion chromatography relative to vehicle-treated control; assay type: functional
[6] = system: Rattus norvegicus; experiment: Increase in HDL level in fructose-fed Sprague-Dawley rat model of dyslipidemia at 1 mg/kg, po qd through oral gavage by size exclusion chromatography relative to vehicle-treated control; assay type: functional
[7] = system: Rattus norvegicus; experiment: Increase in HDL level in fructose-fed Sprague-Dawley rat model of dyslipidemia at 3 mg/kg, po qd through oral gavage by size exclusion chromatography relative to vehicle-treated control; assay type: functional
[8] = system: Rattus norvegicus; experiment: Increase in HDL level in fructose-fed Sprague-Dawley rat model of dyslipidemia at 10 mg/kg, po qd through oral gavage by size exclusion chromatography relative to vehicle-treated control; assay type: functional
[9] = system: Rattus norvegicus; experiment: Decrease in triglyceride level in fructose-fed Sprague-Dawley rat model of dyslipidemia at 0.1 mg/kg, po qd through oral gavage by size exclusion chromatography (Rvb =296 +/- 20 mg/dL); assay type: functional
[10] = system: Rattus norvegicus; experiment: Decrease in triglyceride level in fructose-fed Sprague-Dawley rat model of dyslipidemia at 0.3 mg/kg, po qd through oral gavage by size exclusion chromatography (Rvb =296 +/- 20 mg/dL); assay type: functional
[11] = system: Rattus norvegicus; experiment: Decrease in triglyceride level in fructose-fed Sprague-Dawley rat model of dyslipidemia at 1 mg/kg, po qd through oral gavage by size exclusion chromatography (Rvb =296 +/- 20 mg/dL); assay type: functional
[12] = system: Rattus norvegicus; experiment: Decrease in triglyceride level in fructose-fed Sprague-Dawley rat model of dyslipidemia at 3 mg/kg, po qd through oral gavage by size exclusion chromatography (Rvb =296 +/- 20 mg/dL); assay type: functional
[13] = system: Rattus norvegicus; experiment: Decrease in triglyceride level in fructose-fed Sprague-Dawley rat model of dyslipidemia at 10 mg/kg, po qd through oral gavage by size exclusion chromatography (Rvb =296 +/- 20 mg/dL); assay type: functional
[14] = target: T1, Thyroid hormone receptor beta; experiment: Agonist activity at TRbeta (unknown origin) expressed in human HuH7 cells after 24 hrs by Gal4 CTF cell-based assay; design: species or system Huh-7
[15] = target: T2, Thyroid hormone receptor alpha; experiment: Agonist activity at TRalpha (unknown origin) expressed in human HuH7 cells after 24 hrs by Gal4 CTF cell-based assay; design: species or system Huh-7

Compound | Ki [1] [nM] | Ki [2] [nM] | other results
CC(C)c1cc(Cn2ccc3cc(OCC(=O)O)ccc32)ccc1O | 1.04 | 13.5 | 
Cc1cc2cc(OCC(=O)O)ccc2n1Cc1ccc(O)c(C(C)C)c1 | 1.12 | 16.3 | 
Cc1cn(Cc2ccc(O)c(C(C)C)c2)c2ccc(OCC(=O)O)cc12 | 0.38 | 7.74 | Activity [3]: 22%; Activity [4]: Non-toxic; Activity [5]: 39%; Activity [6]: 55%; Activity [7]: 42%; Activity [8]: 35%; Activity [9]: 204 mg/dL; Activity [10]: 214 mg/dL; Activity [11]: 177 mg/dL; Activity [12]: 149 mg/dL; Activity [13]: 106 mg/dL
Cc1cc(OCC(=O)O)cc2ccn(Cc3ccc(O)c(C(C)C)c3)c12 | 0.26 | 1.09 | 
CC(C)c1cc(Cn2ccc3cc(OCC(=O)O)cc(Cl)c32)ccc1O | 0.07 | 0.35 | 
Cc1cc(OCC(=O)O)cc2cc(C)n(Cc3ccc(O)c(C(C)C)c3)c12 | 0.14 | 2.05 | 
Cc1cc2cc(OCC(=O)O)cc(Cl)c2n1Cc1ccc(O)c(C(C)C)c1 | 0.04 | 0.38 | 
Cc1cn(Cc2ccc(O)c(C(C)C)c2)c2c(C)cc(OCC(=O)O)cc12 | 0.18 | 2.77 | 
Cc1cn(Cc2ccc(O)c(C(C)C)c2)c2c(Cl)cc(OCC(=O)O)cc12 | 0.09 | 0.51 | 
Cc1cn(Cc2ccc(O)c(C(C)(C)C)c2)c2ccc(OCC(=O)O)cc12 | 0.3 | 9.98 | 
Cc1cn(Cc2ccc(O)c(Cc3ccccc3)c2)c2ccc(OCC(=O)O)cc12 | 0.54 | 36.5 | EC50 [14]: 406 nM; EC50 [15]: 2470 nM
Cc1cn(Cc2ccc(O)c(C3CCCC3)c2)c2ccc(OCC(=O)O)cc12 | 0.64 | 32.3 | 
Cc1cn(Cc2ccc(O)c(CC3CCCCC3)c2)c2ccc(OCC(=O)O)cc12 | 1.11 | 46.6 | 
Cc1cn(Cc2ccc(O)c(-c3ccccc3)c2)c2ccc(OCC(=O)O)cc12 | 3.14 | 89.9 | 
Cc1cn(Cc2ccc(O)c(C3CCCCC3)c2)c2ccc(OCC(=O)O)cc12 | 8.04 | 200 | 
